Measurements as given in PubChem BioAssay (NCI).
Several values for one entry are separate records, joined by “and”; a condition that tells them apart may be missing. Identical values can stand only once.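 Results reflect a 48-hour exposure of cells in 96-well plates to compound at five concentrations. Abbreviation: GI50, concentration required for 50% inhibition of growth. Definition used: TGI = concentration required for complete inhibition of growth.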

These compounds were tested on SK-MEL-28 melanoma (assay: inhibition of tumour cell growth, NCI panel, 48 h).

Compared with `COc1cccc2c(=O)c3c(sc12)c(N1CCNCC1)nc1ccccc13`, `O=c1cc(NC2CCN(CCCc3ccccc3)CC2)c2cc(Cl)ccc2o1` is 6-fold higher in GI50: 1.86 µM for the first, 11.1 µM for the second.

`Nc1nc(F)nc2c1ncn2C1OC(CO)C(O)C1O` (stereo not drawn) and `O=C1Nc2ccc(F)cc2/C1=C/c1ccc[nH]1` cannot be ordered by GI50: greater than 100 µM for the first, greater than 25 µM for the second.

First: CCn1c(SCc2ccc(C)cc2)nnc1-c1nn(-c2ccc(Cl)cc2Cl)c(-c2ccc(Cl)cc2)c1C
Second: CCOc1cc(C(C)(C)C)ccc1C1=N[C@@](C)(c2ccc(Cl)cc2)[C@@](C)(c2ccc(Cl)cc2)N1C(=O)N1CCN(CCCS(C)(=O)=O)CC1
The GI50 of the first is 2-fold lower: 3.11 µM for the first, 6.1 µM for the second.

Going from `O=c1cccc(C#CC#CC2=CCCCC2)o1` to `Br[C](Br)(Br)[Hg][c]1ccccc1`, the GI50 falls from greater than 29.9 µM to 14.3 µM.

Compared with `COc1cccc2c(=O)c3c(sc12)c(N1CCNCC1)nc1ccccc13`, `COc1c(CCl)cc(-c2cc(=O)c3ccccc3s2)cc1CCl` is higher in TGI: 3.4 µM for the first, greater than 100 µM for the second.

`O=c1cc(NC2CCN(CCCc3ccccc3)CC2)c2cc(Cl)ccc2o1` and `CCOc1cc(C(C)(C)C)ccc1C1=N[C@@](C)(c2ccc(Cl)cc2)[C@@](C)(c2ccc(Cl)cc2)N1C(=O)N1CCN(CCCS(C)(=O)=O)CC1` are within 1.5-fold of each other in TGI: 23.9 µM for the first, 19.3 µM for the second.

`Nc1nc(F)nc2c1ncn2C1OC(CO)C(O)C1O` (stereo not drawn) and `O=C1Nc2ccc(F)cc2/C1=C/c1ccc[nH]1` cannot be ordered by TGI: greater than 100 µM for the first, greater than 25 µM for the second.

Going from `CCn1c(SCc2ccc(C)cc2)nnc1-c1nn(-c2ccc(Cl)cc2Cl)c(-c2ccc(Cl)cc2)c1C` to `CCn1c(-c2ccc(OC(C)=O)cc2)c(C)c2cc(OC(C)=O)ccc21`, the TGI rises from 15.3 µM to 59.1 µM (3.9-fold).

Compared with `O=c1cccc(C#CC#CC2=CCCCC2)o1`, `COc1ccc(CC2NCCc3cc(OC)c(OC)cc32)cc1Br` (stereo not drawn) is lower in TGI: greater than 52.6 µM for the first, 33.7 µM for the second.

Work on `Br[C](Br)(Br)[Hg][c]1ccccc1` yielded a TGI of 27.8 µM.

Each compound was assayed on SF-268 CNS (assay: inhibition of tumour cell growth, NCI panel, 48 h).

Going from `COc1cccc2c(=O)c3c(sc12)c(N1CCNCC1)nc1ccccc13` to `O=c1cc(NC2CCN(CCCc3ccccc3)CC2)c2cc(Cl)ccc2o1`, the GI50 rises from 1.75 µM to 14.3 µM (8.2-fold).

`Nc1nc(F)nc2c1ncn2C1OC(CO)C(O)C1O` (stereo not drawn) and `O=C1Nc2ccc(F)cc2/C1=C/c1ccc[nH]1` cannot be ordered by GI50: 55.4 µM for the first, greater than 25 µM for the second.

Going from `CCn1c(SCc2ccc(C)cc2)nnc1-c1nn(-c2ccc(Cl)cc2Cl)c(-c2ccc(Cl)cc2)c1C` to `CCOc1cc(C(C)(C)C)ccc1C1=N[C@@](C)(c2ccc(Cl)cc2)[C@@](C)(c2ccc(Cl)cc2)N1C(=O)N1CCN(CCCS(C)(=O)=O)CC1`, the GI50 rises from 3.06 µM to 9.42 µM (3.1-fold).

First: O=c1cccc(C#CC#CC2=CCCCC2)o1
Second: Br[C](Br)(Br)[Hg][c]1ccccc1
The GI50 of the first is 2.6-fold lower: 9.15 µM for the first, 24.1 µM for the second.

First: COc1cccc2c(=O)c3c(sc12)c(N1CCNCC1)nc1ccccc13
Second: COc1c(CCl)cc(-c2cc(=O)c3ccccc3s2)cc1CCl
The TGI of the first is lower: 3.45 µM for the first, greater than 100 µM for the second.

`O=c1cc(NC2CCN(CCCc3ccccc3)CC2)c2cc(Cl)ccc2o1` and `CCOc1cc(C(C)(C)C)ccc1C1=N[C@@](C)(c2ccc(Cl)cc2)[C@@](C)(c2ccc(Cl)cc2)N1C(=O)N1CCN(CCCS(C)(=O)=O)CC1` are within 1.5-fold of each other in TGI: 28.3 µM for the first, 37.6 µM for the second.

`Nc1nc(F)nc2c1ncn2C1OC(CO)C(O)C1O` (stereo not drawn) and `O=C1Nc2ccc(F)cc2/C1=C/c1ccc[nH]1` cannot be ordered by TGI: greater than 100 µM for the first, greater than 25 µM for the second.

First: CCn1c(SCc2ccc(C)cc2)nnc1-c1nn(-c2ccc(Cl)cc2Cl)c(-c2ccc(Cl)cc2)c1C
Second: CCn1c(-c2ccc(OC(C)=O)cc2)c(C)c2cc(OC(C)=O)ccc21
The TGI of the first is 3.9-fold lower: 14.9 µM for the first, 58.5 µM for the second.

First: O=c1cccc(C#CC#CC2=CCCCC2)o1
Second: COc1ccc(CC2NCCc3cc(OC)c(OC)cc32)cc1Br (stereo not drawn)
The TGI of the first is lower: 20.6 µM for the first, greater than 100 µM for the second.

With `Br[C](Br)(Br)[Hg][c]1ccccc1` the TGI was 56.2 µM.

The compounds below were run on NCI/ADR-RES ovarian (assay: inhibition of tumour cell growth, NCI panel, 48 h).

Going from `COc1cccc2c(=O)c3c(sc12)c(N1CCNCC1)nc1ccccc13` to `O=c1cc(NC2CCN(CCCc3ccccc3)CC2)c2cc(Cl)ccc2o1`, the GI50 rises from 1.75 µM to 15 µM (8.6-fold).

`CCn1c(SCc2ccc(C)cc2)nnc1-c1nn(-c2ccc(Cl)cc2Cl)c(-c2ccc(Cl)cc2)c1C` and `CCOc1cc(C(C)(C)C)ccc1C1=N[C@@](C)(c2ccc(Cl)cc2)[C@@](C)(c2ccc(Cl)cc2)N1C(=O)N1CCN(CCCS(C)(=O)=O)CC1` are within 1.5-fold of each other in GI50: 3.54 µM for the first, 4.97 µM for the second.

Compared with `O=c1cccc(C#CC#CC2=CCCCC2)o1`, `O=C1Nc2ccc(F)cc2/C1=C/c1ccc[nH]1` is higher in GI50: 6.99 µM for the first, greater than 25 µM for the second.

For `Br[C](Br)(Br)[Hg][c]1ccccc1`, the GI50 was 18.3 µM.

Going from `COc1cccc2c(=O)c3c(sc12)c(N1CCNCC1)nc1ccccc13` to `COc1c(CCl)cc(-c2cc(=O)c3ccccc3s2)cc1CCl`, the TGI rises from 3.45 µM to greater than 100 µM.

Going from `O=c1cc(NC2CCN(CCCc3ccccc3)CC2)c2cc(Cl)ccc2o1` to `CCOc1cc(C(C)(C)C)ccc1C1=N[C@@](C)(c2ccc(Cl)cc2)[C@@](C)(c2ccc(Cl)cc2)N1C(=O)N1CCN(CCCS(C)(=O)=O)CC1`, the TGI falls from 30.4 µM to 18.9 µM (1.6-fold).

Compared with `CCn1c(SCc2ccc(C)cc2)nnc1-c1nn(-c2ccc(Cl)cc2Cl)c(-c2ccc(Cl)cc2)c1C`, `CCn1c(-c2ccc(OC(C)=O)cc2)c(C)c2cc(OC(C)=O)ccc21` is higher in TGI: 14.6 µM for the first, greater than 100 µM for the second.

Going from `O=c1cccc(C#CC#CC2=CCCCC2)o1` to `O=C1Nc2ccc(F)cc2/C1=C/c1ccc[nH]1`, the TGI rises from 20.4 µM to greater than 25 µM.

First: Br[C](Br)(Br)[Hg][c]1ccccc1
Second: COc1ccc(CC2NCCc3cc(OC)c(OC)cc32)cc1Br (stereo not drawn)
The TGI of the first is lower: 42.2 µM for the first, greater than 100 µM for the second.

In the case of `Nc1nc(F)nc2c1ncn2C1OC(CO)C(O)C1O` (stereo not drawn), the TGI is reported as > 55.5 µM and 46.6 µM.

These compounds were tested on NCI-H226 lung (assay: inhibition of tumour cell growth, NCI panel, 48 h).

Going from `COc1cccc2c(=O)c3c(sc12)c(N1CCNCC1)nc1ccccc13` to `O=c1cc(NC2CCN(CCCc3ccccc3)CC2)c2cc(Cl)ccc2o1`, the GI50 rises from 1.58 µM to 15.6 µM (9.9-fold).

Compared with `CCn1c(SCc2ccc(C)cc2)nnc1-c1nn(-c2ccc(Cl)cc2Cl)c(-c2ccc(Cl)cc2)c1C`, `CCOc1cc(C(C)(C)C)ccc1C1=N[C@@](C)(c2ccc(Cl)cc2)[C@@](C)(c2ccc(Cl)cc2)N1C(=O)N1CCN(CCCS(C)(=O)=O)CC1` is 4.9-fold lower in GI50: 2.26 µM for the first, 0.462 µM for the second.

Compared with `O=c1cccc(C#CC#CC2=CCCCC2)o1`, `O=C1Nc2ccc(F)cc2/C1=C/c1ccc[nH]1` is higher in GI50: 6.87 µM for the first, greater than 25 µM for the second.

`Br[C](Br)(Br)[Hg][c]1ccccc1` gave a GI50 of 16.8 µM.

Going from `COc1cccc2c(=O)c3c(sc12)c(N1CCNCC1)nc1ccccc13` to `COc1c(CCl)cc(-c2cc(=O)c3ccccc3s2)cc1CCl`, the TGI rises from 3.18 µM to greater than 31.6 µM.

Going from `O=c1cc(NC2CCN(CCCc3ccccc3)CC2)c2cc(Cl)ccc2o1` to `CCOc1cc(C(C)(C)C)ccc1C1=N[C@@](C)(c2ccc(Cl)cc2)[C@@](C)(c2ccc(Cl)cc2)N1C(=O)N1CCN(CCCS(C)(=O)=O)CC1`, the TGI falls from 39.6 µM to 2.11 µM (19-fold).

`Nc1nc(F)nc2c1ncn2C1OC(CO)C(O)C1O` (stereo not drawn) and `O=C1Nc2ccc(F)cc2/C1=C/c1ccc[nH]1` cannot be ordered by TGI: greater than 100 µM for the first, greater than 25 µM for the second.

First: CCn1c(SCc2ccc(C)cc2)nnc1-c1nn(-c2ccc(Cl)cc2Cl)c(-c2ccc(Cl)cc2)c1C
Second: CCn1c(-c2ccc(OC(C)=O)cc2)c(C)c2cc(OC(C)=O)ccc21
The TGI of the first is lower: 13.9 µM for the first, greater than 100 µM for the second.

First: O=c1cccc(C#CC#CC2=CCCCC2)o1
Second: COc1ccc(CC2NCCc3cc(OC)c(OC)cc32)cc1Br (stereo not drawn)
The TGI of the first is 5.1-fold lower: 14.6 µM for the first, 73.9 µM for the second.

Compound `Br[C](Br)(Br)[Hg][c]1ccccc1` has a TGI of 35.8 µM.

Each compound was assayed on A549 NSCLC (assay: inhibition of tumour cell growth, NCI panel, 48 h).

Going from `COc1cccc2c(=O)c3c(sc12)c(N1CCNCC1)nc1ccccc13` to `O=c1cc(NC2CCN(CCCc3ccccc3)CC2)c2cc(Cl)ccc2o1`, the GI50 rises from 1.81 µM to 13.4 µM (7.4-fold).

`Nc1nc(F)nc2c1ncn2C1OC(CO)C(O)C1O` (stereo not drawn) and `O=C1Nc2ccc(F)cc2/C1=C/c1ccc[nH]1` cannot be ordered by GI50: 35.6 µM for the first, greater than 25 µM for the second.

Compared with `CCn1c(SCc2ccc(C)cc2)nnc1-c1nn(-c2ccc(Cl)cc2Cl)c(-c2ccc(Cl)cc2)c1C`, `CCOc1cc(C(C)(C)C)ccc1C1=N[C@@](C)(c2ccc(Cl)cc2)[C@@](C)(c2ccc(Cl)cc2)N1C(=O)N1CCN(CCCS(C)(=O)=O)CC1` is 2.8-fold lower in GI50: 2.82 µM for the first, 1.01 µM for the second.

Going from `O=c1cccc(C#CC#CC2=CCCCC2)o1` to `Br[C](Br)(Br)[Hg][c]1ccccc1`, the GI50 rises from 10.1 µM to 29.4 µM (2.9-fold).

First: COc1cccc2c(=O)c3c(sc12)c(N1CCNCC1)nc1ccccc13
Second: COc1c(CCl)cc(-c2cc(=O)c3ccccc3s2)cc1CCl
The TGI of the first is lower: 4.26 µM for the first, greater than 100 µM for the second.

`O=c1cc(NC2CCN(CCCc3ccccc3)CC2)c2cc(Cl)ccc2o1` and `CCOc1cc(C(C)(C)C)ccc1C1=N[C@@](C)(c2ccc(Cl)cc2)[C@@](C)(c2ccc(Cl)cc2)N1C(=O)N1CCN(CCCS(C)(=O)=O)CC1` are within 1.5-fold of each other in TGI: 28.6 µM for the first, 19.4 µM for the second.

`Nc1nc(F)nc2c1ncn2C1OC(CO)C(O)C1O` (stereo not drawn) and `O=C1Nc2ccc(F)cc2/C1=C/c1ccc[nH]1` cannot be ordered by TGI: greater than 100 µM for the first, greater than 25 µM for the second.

Going from `CCn1c(SCc2ccc(C)cc2)nnc1-c1nn(-c2ccc(Cl)cc2Cl)c(-c2ccc(Cl)cc2)c1C` to `CCn1c(-c2ccc(OC(C)=O)cc2)c(C)c2cc(OC(C)=O)ccc21`, the TGI rises from 11.3 µM to 67.9 µM (6-fold).

`O=c1cccc(C#CC#CC2=CCCCC2)o1` and `COc1ccc(CC2NCCc3cc(OC)c(OC)cc32)cc1Br` (stereo not drawn) cannot be ordered by TGI: greater than 47.7 µM for the first, greater than 100 µM for the second.

`Br[C](Br)(Br)[Hg][c]1ccccc1` showed a TGI of 59.5 µM.
